This is an account of results in ChEMBL document CHEMBL5537201, “Discovery of Unique Bis-Substituted Aromatic Amide Derivatives as Novel Highly Potent Antibiotics for Combating Methicillin-Resistant Staphylococcus aureus (MRSA)” (J Med Chem, 2024).

Holding throughout (format): functional
The subject of assay [1] is Staphylococcus aureus. Kind of assay: Antimicrobial activity against Staphylococcus aureus N315 assessed as reduction in bacterial growth incubated for 24 hrs by two-fold broth dilution method.
In assay [2] the test system is Staphylococcus aureus. Kind of assay: Antimicrobial activity against Staphylococcus aureus ATCC6538 assessed as reduction in bacterial growth incubated for 24 hrs by two-fold broth dilution method. On the technique in general: In broth dilution the organism is exposed to a series of concentrations in liquid medium.
The subject of assay [3] is Staphylococcus aureus. Kind of assay: Antimicrobial activity against methicillin resistant Staphylococcus aureus clinical isolate MRS273 assessed as reduction in bacterial growth incubated for 24 hrs by two-fold broth dilution method.
The subject of assay [4] is Staphylococcus aureus. Nature of the assay: Antimicrobial activity against methicillin resistant Staphylococcus aureus clinical isolate MRS200 assessed as reduction in bacterial growth incubated for 24 hrs by two-fold broth dilution method.
The subject of assay [5] is Staphylococcus aureus. Nature of the assay: Antimicrobial activity against methicillin resistant Staphylococcus aureus clinical isolate MRS97 assessed as reduction in bacterial growth incubated for 24 hrs by two-fold broth dilution method.
The subject of assay [6] is Staphylococcus aureus. Kind of assay: Antimicrobial activity against methicillin resistant Staphylococcus aureus clinical isolate MRS1 assessed as reduction in bacterial growth incubated for 24 hrs by two-fold broth dilution method.
Assay [7] relates to Staphylococcus aureus. Kind of assay: Antimicrobial activity against methicillin resistant Staphylococcus aureus clinical isolate MRS84 assessed as reduction in bacterial growth incubated for 24 hrs by two-fold broth dilution method.
Assay [8] has as its system Staphylococcus aureus. Nature of the assay: Antimicrobial activity against methicillin resistant Staphylococcus aureus clinical isolate MRS70 assessed as reduction in bacterial growth incubated for 24 hrs by two-fold broth dilution method.
The next assay concerns Streptomyces albus. Nature of the assay: Antimicrobial activity against Streptomyces albus SHBC D11158 assessed as reduction in bacterial growth incubated for 24 hrs by two-fold broth dilution method.
Assay [9] has as its system Staphylococcus aureus. Kind of assay: Antimicrobial activity against methicillin resistant Staphylococcus aureus clinical isolate MRS108 assessed as reduction in bacterial growth incubated for 24 hrs by two-fold broth dilution method.
Assay [10] has as its system Staphylococcus aureus. Nature of the assay: Antimicrobial activity against methicillin resistant Staphylococcus aureus clinical isolate MRS121 assessed as reduction in bacterial growth incubated for 24 hrs by two-fold broth dilution method.
In assay [11] the test system is Staphylococcus aureus. Kind of assay: Antimicrobial activity against methicillin resistant Staphylococcus aureus clinical isolate MRS23 assessed as reduction in bacterial growth incubated for 24 hrs by two-fold broth dilution method.
The subject of assay [12] is Staphylococcus aureus. Kind of assay: Antimicrobial activity against methicillin resistant Staphylococcus aureus clinical isolate MRS207 assessed as reduction in bacterial growth incubated for 24 hrs by two-fold broth dilution method.
In a further assay the test system is Staphylococcus hominis. Nature of the assay: Antimicrobial activity against methicillin-resistant Staphylococcus hominis assessed as reduction in bacterial growth incubated for 24 hrs by two-fold broth dilution method.
For assay [13], the system named is Staphylococcus aureus. Kind of assay: Antimicrobial activity against methicillin resistant Staphylococcus aureus clinical isolate MRS153 assessed as reduction in bacterial growth incubated for 24 hrs by two-fold broth dilution method.
For assay [14], the system named is Staphylococcus aureus. Kind of assay: Antimicrobial activity against methicillin resistant Staphylococcus aureus clinical isolate MRS152 assessed as reduction in bacterial growth incubated for 24 hrs by two-fold broth dilution method.

SMILES strings stand for the structures. Values after ≈ are worked out from the molar mass of the structure shown.

For orientation: MIC means the lowest concentration that inhibits growth of the organism. `O=C(CCC(F)(F)F)N(Cc1cc2ccccc2s1)c1cc(-c2cncnc2)ccc1O`: the MIC with Staphylococcus aureus [1] and in the assay on Staphylococcus aureus [2] was over 16 µg/mL throughout.

For `CCCCC(=O)N(Cc1ccc2sccc2c1)c1ccc2ccccc2c1O`, the values for the MIC with Staphylococcus aureus [1] and with Staphylococcus aureus [2] were 62.5 µg/mL (≈ 160 µM) and 31.2 µg/mL (≈ 80.2 µM), respectively.

For `O=C(CCC(F)(F)F)N(Cc1cc2ccccc2s1)c1cc(-c2ccc(Br)cc2)ccc1O`, the MIC with Staphylococcus aureus [1] came out at 3 µg/mL (≈ 5.61 µM); with Staphylococcus aureus [2], 2 µg/mL (≈ 3.74 µM).

For `O=C(CCC(F)(F)F)N(Cc1cc2ccccc2s1)c1cccc(-c2ccccc2)c1O`, the MIC with Staphylococcus aureus [1] and in the assay with Staphylococcus aureus [2] was over 16 µg/mL each time.

For `C=CC(=O)N(Cc1cc2ccccc2s1)c1ccc2ccccc2c1O`, the MIC in the assay with Staphylococcus aureus [1] and with Staphylococcus aureus [2] was 7.8 µg/mL (≈ 21.7 µM) each time.

On to `COc1ccccc1-c1ccc(O)c(N(Cc2cc3ccccc3s2)C(=O)CCC(F)(F)F)c1`, for which the MIC was 3 µg/mL (≈ 6.18 µM) with Staphylococcus aureus [3]; 16 µg/mL (≈ 33 µM) with Staphylococcus aureus [4]; 1 µg/mL (≈ 2.06 µM) in the assay on Staphylococcus aureus [1]; 3 µg/mL (≈ 6.18 µM) with Staphylococcus aureus [5]; 16 µg/mL (≈ 33 µM) in the assay with Staphylococcus aureus [6]; 3 µg/mL (≈ 6.18 µM) in the assay on Staphylococcus aureus [7]. Also, the MIC with Staphylococcus aureus [8] turned out to be 16 µg/mL (≈ 33 µM); in the assay with Streptomyces albus, 16 µg/mL (≈ 33 µM); with Staphylococcus aureus [2] it was 1 µg/mL (≈ 2.06 µM); with Staphylococcus aureus [9] it was 6 µg/mL (≈ 12.4 µM); in the assay on Staphylococcus aureus [10] it was 6 µg/mL (≈ 12.4 µM); in the assay on Staphylococcus aureus [11] it was 16 µg/mL (≈ 33 µM). In addition, the MIC is over 16 µg/mL in the assay on Staphylococcus aureus [12], over 32 µg/mL with Staphylococcus hominis, 16 µg/mL (≈ 33 µM) in the assay with Staphylococcus aureus [13] and 6 µg/mL (≈ 12.4 µM) with Staphylococcus aureus [14].

With `CCCCC(=O)N(Cc1cc(C(C)(C)C)cc(C(C)(C)C)c1)c1ccc2ccccc2c1O`, the MIC in the assay on Staphylococcus aureus [1] and in the assay with Staphylococcus aureus [2] was 62.5 µg/mL (≈ 140 µM) throughout.

As for `CCCCC(=O)N(Cc1ccc2oc3ccccc3c2c1)c1ccc2ccccc2c1O`, the MIC with Staphylococcus aureus [1] is 125 µg/mL (≈ 295 µM); in the assay on Staphylococcus aureus [2], 62.5 µg/mL (≈ 148 µM).

Consider `CCCCC(=O)N(Cc1cc2ccccc2o1)c1ccc2ccccc2c1O`, for which the MIC was 62.5 µg/mL (≈ 167 µM) in the assay on Staphylococcus aureus [1] and 31.2 µg/mL (≈ 83.7 µM) in the assay with Staphylococcus aureus [2].

Take `O=C(CCC(F)(F)F)N(Cc1cc2ccccc2s1)c1ccc2ccccc2c1O`: the MIC in the assay with Staphylococcus aureus [1] and in the assay with Staphylococcus aureus [2] was 2 µg/mL (≈ 4.66 µM) in each case.

For `O=C(CCCCl)N(Cc1cc2ccccc2s1)c1ccc2ccccc2c1O`, the MIC in the assay on Staphylococcus aureus [1] was 31.2 µg/mL (≈ 76.2 µM); in the assay with Staphylococcus aureus [2] it was 7.8 µg/mL (≈ 19 µM).

As to `CCCCC(=O)N(Cc1ccc2c(c1)OCO2)c1ccc2ccccc2c1O`, the MIC in the assay on Staphylococcus aureus [1] and in the assay with Staphylococcus aureus [2] was 31.2 µg/mL (≈ 82.8 µM) each time.

`CC(C)(C)c1ccc(-c2ccc(O)c(N(Cc3cc4ccccc4s3)C(=O)CCC(F)(F)F)c2)cc1`: the MIC with Staphylococcus aureus [1] came to 1 µg/mL (≈ 1.95 µM); in the assay on Staphylococcus aureus [2], 2 µg/mL (≈ 3.91 µM).

Turning to `O=C(CCC(F)(F)F)N(Cc1cc2ccccc2s1)c1ccc(-c2ccccc2)cc1O`, the MIC is 3 µg/mL (≈ 6.59 µM) in the assay on Staphylococcus aureus [1] and 2 µg/mL (≈ 4.39 µM) in the assay on Staphylococcus aureus [2].

On to `CCCCC(=O)N(Cc1cc2ccccc2c2ccccc12)c1ccc2ccccc2c1O`, for which the MIC with Staphylococcus aureus [1] came to 125 µg/mL (≈ 288 µM); with Staphylococcus aureus [2], 62.5 µg/mL (≈ 144 µM).
